The text below walks through data of patent US20120101083A1, “S1P1 AGONISTS COMPRISING A BICYCLIC N-CONTAINING RING” (GLAXO GROUP LIMITED, priority 2009, published 2012).

Where a name gives a salt, the structure may show the parent alone.

T1 sequence (P21453 whole entry): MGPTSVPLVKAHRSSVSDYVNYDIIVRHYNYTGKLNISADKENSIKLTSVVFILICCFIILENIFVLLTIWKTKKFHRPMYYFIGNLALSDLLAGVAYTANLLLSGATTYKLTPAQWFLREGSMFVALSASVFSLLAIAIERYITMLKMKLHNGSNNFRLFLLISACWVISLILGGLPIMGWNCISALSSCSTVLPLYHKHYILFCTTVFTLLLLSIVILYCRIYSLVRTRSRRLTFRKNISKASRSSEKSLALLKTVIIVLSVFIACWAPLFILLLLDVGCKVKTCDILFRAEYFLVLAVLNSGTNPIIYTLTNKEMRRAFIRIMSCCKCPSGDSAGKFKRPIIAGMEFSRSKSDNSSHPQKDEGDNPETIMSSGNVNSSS
T1 sequence (P32121 whole entry partner): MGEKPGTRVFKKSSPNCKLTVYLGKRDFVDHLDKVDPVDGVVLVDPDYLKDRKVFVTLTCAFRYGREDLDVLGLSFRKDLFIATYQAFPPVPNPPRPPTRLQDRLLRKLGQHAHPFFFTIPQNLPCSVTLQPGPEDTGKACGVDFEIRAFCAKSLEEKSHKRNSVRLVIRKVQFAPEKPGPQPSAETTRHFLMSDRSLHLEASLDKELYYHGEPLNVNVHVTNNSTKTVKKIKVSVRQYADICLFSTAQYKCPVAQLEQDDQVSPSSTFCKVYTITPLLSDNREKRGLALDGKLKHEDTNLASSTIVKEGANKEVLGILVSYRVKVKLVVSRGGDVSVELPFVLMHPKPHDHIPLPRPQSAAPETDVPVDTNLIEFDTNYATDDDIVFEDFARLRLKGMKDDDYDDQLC
T2 sequence (P21453 whole entry): as the sequence (P21453 whole entry) above

The first experiment addresses T1, S1P1 (PathHunter CHO-K1 EDG1 β-Arrestin cell line) (Homo sapiens, UniProt P21453).
T1 construct: host or cells: PathHunter CHO-K1 EDG1 β-Arrestin cell line
The experiment is described as follows: S1P-1 β-Arrestin recruitment assay. Format: cell-based. As to conditions: CHO-K1 EDG1 β-Arrestin cells, chemi-luminescence. The procedure: S1P-1 β-Arrestin Recruitment Assay
β-Arrestin recruitment assays were carried out using the PathHunter CHO-K1 EDG1
β-Arrestin cell line (DiscoveRx Corporation) in a chemi-luminescence detection assay. This cell line stably expresses β-Arrestin 2 and S1P1 fused to complementing portions of β-galactosidase (‘EA’ and ‘pro-link’, respectively) which associate upon Arrestin recruitment to form functional β-galactosidase enzyme.
Cells were grown to 80% confluency in Growth Medium (F12 nutrient HAMS supplemented with 10% heat-inactivated USA FBS, 1% L-glutamax, 800 μg/ml Geneticin and 300 μg/ml Hygromycin). Cells were harvested from the flask using Enzyme Free Cell Dissociation Buffer (Gibco) and washed from flasks with Optimem solution (Gibco). Cells were then centrifuged at 1000 rpm for 2-3 min and resuspended in Assay Buffer (Prepared from Sigma kit H1387 supplemented with 20 ml/L HEPES, 4.7 ml/L NaHCO3, 0.1% pluronic acid F-68 solution, 0.1% BSA and adjusted to pH 7.4 using sodium hydroxide at 1×10^6 cells/ml. Cells were dispensed into assay plates containing compounds (100n1/well of a solution of test compound in 100% DMSO) at 1×10^4 cells/well and incubated at 37° C./5% CO2 for 90 min followed by 15 min at room temperature. 5 μl detection mix (1 part Galacton Star, 5 parts Emerald II, 19 parts Assay Buffer; DiscoveRx) were added per well and the plates incubated at room temperature for 60 min. Luminescence was quantified using a Viewlux plate reader.
On the technique in general: Activated receptors often draw arrestin, which recruitment assays turn into a signal.
Take `CNC(=O)CCCN1CCc2ccc(-c3noc(-c4ccc(OC(C)C)c(C#N)c4)n3)cc2CC1` [Example 24, 4-[7-(5-{3-Cyano-4-[(1-methylethyl)oxy]phenyl}-1,2,4-oxadiazol-3-yl)-1,2,4,5-tetrahydro-3H-3-benzazepin-3-yl]-N-methylbutanamide]: the EC50 – broadly, the concentration needed to bring the measured effect to its halfway point – is no more than 10 nM. Take `CC(C)Nc1ncc(-c2nc(-c3ccc4c(c3)CCN(C(CO)CO)CC4)no2)cc1C#N` [Example 108, 5-(3-{3-[2-hydroxy-1-(hydroxymethyl)ethyl]-2,3,4,5-tetrahydro-1H-3-benzazepin-7-yl}-1,2,4-oxadiazol-5-yl)-2-[(1-methylethyl)amino]-3-pyridinecarbonitrile hydrochloride]: the EC50 is no more than 100 nM. The same measure, in the same setting: as for `Cc1c(-c2noc(-c3ccc(OC(C)C)c(C#N)c3)n2)ccc2c1CCN(C(=O)CNCCO)C2` [Example 131, formic acid-5-(3-{2-[N-(2-hydroxyethyl)glycyl]-5-methyl-1,2,3,4-tetrahydro-6-isoquinolinyl}-1,2,4-oxadiazol-5-yl)-2-[(1-methylethyl)oxy]benzonitrile (1:1)], the figure is no more than 10 nM. For `CC(C)Oc1ccc(-c2nc(-c3ccc4c(c3)CCN(CC(=O)NCCCO)CC4)no2)cc1C#N` [Example 157, 2-[7-(5-{3-cyano-4-[(1-methylethyl)oxy]phenyl}-1,2,4-oxadiazol-3-yl)-1,2,4,5-tetrahydro-3H-3-benzazepin-3-yl]-N-(3-hydroxypropyl)acetamide], the EC50 was no more than 10 nM. Regarding `CC(C)Oc1ccc(-c2nc(-c3ccc4c(c3)CCN(CCC(=O)N(C)C)CC4)no2)cc1C#N` [Example 23, 3-[7-(5-{3-Cyano-4-[(1-methylethyl)oxy]phenyl}-1,2,4-oxadiazol-3-yl)-1,2,4,5-tetrahydro-3H-3-benzazepin-3-yl]-N,N-dimethylpropanamide], the EC50 was no more than 100 nM. As for `CC(C)Oc1ccc(-c2nc(-c3ccc4c(c3)CCN(C(C)C(=O)N[C@H](C)CO)CC4)no2)cc1C#N` (stereo partly drawn) [Example 162, 2-[7-(5-{3-cyano-4-[(1-methylethyl)oxy]phenyl}-1,2,4-oxadiazol-3-yl)-1,2,4,5-tetrahydro-3H-3-benzazepin-3-yl]-N-(1R)-2-hydroxy-1-methylethyl]propanamide hydrochloride], the EC50 was no more than 100 nM. Compound `CC(C)Oc1ccc(-c2nc(-c3ccc4c(c3)CCN(C(C)C(=O)NCCO)CC4)no2)cc1C#N` (stereo not drawn) [Example 161, 2-[7-(5-{3-cyano-4-[(1-methylethyl)oxy]phenyl}-1,2,4-oxadiazol-3-yl)-1,2,4,5-tetrahydro-3H-3-benzazepin-3-yl]-N-(2-hydroxyethyl)propanamide hydrochloride] had a concentration giving a half-maximal response (EC50) of no more than 100 nM. `N#Cc1cc(-c2nc(-c3ccc4c(c3)CCN(C(=O)CN)CC4)no2)ccc1OCC(F)(F)F` [Example 191, 5-[3-(3-glycyl-2,3,4,5-tetrahydro-1H-3-benzazepin-7-yl)-1,2,4-oxadiazol-5-yl]-2-[(2,2,2-trifluoroethyl)oxy]benzonitrile hydrochloride] showed an EC50 of no more than 10 nM.

In turn, `CC(C)Oc1ccc(-c2nnc(-c3ccc4c(c3)CCN(C(=O)CNCCO)CC4)s2)cc1C#N` [Example 200, 5-(5-{3-[N-(2-hydroxyethyl)glycyl]-2,3,4,5-tetrahydro-1H-3-benzazepin-7-yl}-1,3,4-thiadiazol-2-yl)-2-[(1-methylethyl)oxy]benzonitrile] showed an EC50 of no more than 10 nM. `Cc1c(-c2noc(-c3cnc(OC(C)C)c(C#N)c3)n2)ccc2c1CCN(CC(=O)N[C@@H](C)CO)C2` [Example 170, 2-[6-(5-{5-cyano-6-[(1-methylethyl)oxy]-3-pyridinyl}-1,2,4-oxadiazol-3-yl)-5-methyl-3,4-dihydro-2(1H)-isoquinolinyl]-N-[(1S)-2-hydroxy-1-methylethyl]acetamide hydrochloride]: the EC50 is no more than 10 nM. The compound `CC(C)Oc1ccc(-c2nc(-c3ccc4c(c3)CCN(C[C@@H](O)C(=O)N[C@H](C)CO)CC4)no2)cc1C#N` [Example 165, (2R)-3-[7-(5-{3-cyano-4-[(1-methylethyl)oxy]phenyl}-1,2,4-oxadiazol-3-yl)-1,2,4,5-tetrahydro-3H-3-benzazepin-3-yl]-2-hydroxy-N-(1R)-2-hydroxy-1-methylethyl]propanamide hydrochloride] gave an EC50 of no more than 10 nM. With `Cc1c(-c2noc(-c3ccc(OC(C)C)c(Cl)c3)n2)ccc2c1CCN(C(=O)CNC(CO)CO)C2` [Example 190, 2-({2-[6-(5-{3-chloro-4-[(1-methylethyl)oxy]phenyl}-1,2,4-oxadiazol-3-yl)-5-methyl-3,4-dihydro-2(1H)-isoquinolinyl]-2-oxoethyl}amino)-1,3-propanediol hydrochloride], the EC50 was no more than 100 nM. With `Cc1c(-c2noc(-c3ccc(OC(C)C)c(Cl)c3)n2)ccc2c1CCN(CC(=O)NC(CO)CO)C2` [Example 193, 2-[6-(5-{3-chloro-4-[(1-methylethyl)oxy]phenyl}-1,2,4-oxadiazol-3-yl)-5-methyl-3,4-dihydro-2(1H)-isoquinolinyl]-N-[2-hydroxy-1-(hydroxymethyl)ethyl]acetamide hydrochloride], the EC50 was no more than 10 nM. For `Cc1c(-c2noc(-c3ccc(OC(C)C)c(C#N)c3)n2)ccc2c1CCN(C(=O)CNC[C@H](O)CO)C2` [Example 126, 5-[3-(2-{N-[(2S)-2,3-dihydroxypropyl]glycyl}-5-methyl-1,2,3,4-tetrahydro-6-isoquinolinyl)-1,2,4-oxadiazol-5-yl]-2-[(1-methylethyl)oxy]benzonitrile hydrochloride], the EC50 is no more than 10 nM.

Compound `CC(C)Oc1ccc(-c2nc(-c3ccc4c(c3)CCN(C[C@@H](O)C(=O)NCCO)CC4)no2)cc1C#N` [Example 164, (2R)-3-[7-(5-{3-cyano-4-[(1-methylethyl)oxy]phenyl}-1,2,4-oxadiazol-3-yl)-1,2,4,5-tetrahydro-3H-3-benzazepin-3-yl]-2-hydroxy-N-(2-hydroxyethyl)propanamide hydrochloride] had an EC50 of no more than 10 nM.

With `COCCN1CCc2c(cccc2-c2nnc(-c3ccc(OC(C)C)c(C#N)c3)s2)C1` [Example 37, 2-[(1-Methylethyl)oxy]-5-(5-{2-[2-(methyloxy)ethyl]-1,2,3,4-tetrahydro-5-isoquinolinyl}-1,3,4-thiadiazol-2-yl)benzonitrile], the EC50 is no more than 100 nM. Compound `Cc1c(-c2noc(-c3cnc(OC(C)C)c(Cl)c3)n2)ccc2c1CCN(C(CO)CO)C2` [Example 144, 2-[6-(5-{5-chloro-6-[(1-methylethyl)oxy]-3-pyridinyl}-1,2,4-oxadiazol-3-yl)-5-methyl-3,4-dihydro-2(1H)-isoquinolinyl]-1,3-propanediol] gave an EC50 of no more than 100 nM. As to `Cc1c(-c2nnc(-c3ccc(OC(C)C)c(Cl)c3)s2)ccc2c1CCN(C(CO)CO)C2` [Example 203, 2-[6-(5-{3-chloro-4-[(1-methylethyl)oxy]phenyl}-1,3,4-thiadiazol-2-yl)-5-methyl-3,4-dihydro-2(1H)-isoquinolinyl]-1,3-propanediol hydrochloride], the EC50 was no more than 100 nM. Regarding `Cc1c(-c2noc(-c3ccc(OC(C)C)c(C#N)c3)n2)ccc2c1CCN(C(=O)CNC(CO)CO)C2` [Example 127, 5-[3-(2-{N-[2-hydroxy-1-(hydroxymethyl)ethyl]glycyl}-5-methyl-1,2,3,4-tetrahydro-6-isoquinolinyl)-1,2,4-oxadiazol-5-yl]-2-[(1-methylethyl)oxy]benzonitrile hydrochloride], the EC50 was no more than 10 nM. On to `Cc1c(-c2noc(-c3ccc(OC(C)C)c(Cl)c3)n2)ccc2c1CCN(CC(=O)NC[C@H](O)CO)C2` [Example 192, 2-[6-(5-{3-chloro-4-[(1-methylethyl)oxy]phenyl}-1,2,4-oxadiazol-3-yl)-5-methyl-3,4-dihydro-2(1H)-isoquinolinyl]-N-[(2S)-2,3-dihydroxypropyl]acetamide hydrochloride], for which the EC50 was no more than 10 nM. Consider `CC(C)Oc1ccc(-c2nc(-c3cccc4c3CCN(C(=O)CCN)C4)no2)cc1C#N` [Example 88, 5-[3-(2-β-alanyl-1,2,3,4-tetrahydro-5-isoquinolinyl)-1,2,4-oxadiazol-5-yl]-2-[(1-methylethyl)oxy]benzonitrile hydrochloride], for which the EC50 is no more than 100 nM. Compound `Cc1c(-c2noc(-c3ccc(OC(C)C)c(C#N)c3)n2)ccc2c1CCN(C(=O)CN[C@@H](C)CO)C2` [Example 130, 5-[3-(2-{N-[(1S)-2-hydroxy-1-methylethyl]glycyl}-5-methyl-1,2,3,4-tetrahydro-6-isoquinolinyl)-1,2,4-oxadiazol-5-yl]-2-[(1-methylethyl)oxy]benzonitrile] gave an EC50 of no more than 10 nM. `Cc1c(-c2noc(-c3ccc(OC(C)C)c(C#N)c3)n2)ccc2c1CCN(C(=O)CN[C@H](C)CO)C2` [Example 128] had an EC50 of no more than 10 nM.

The next experiment addresses T2, S1P1 receptor (S1P1 expressing RH7777 membranes) (Homo sapiens, UniProt P21453).
T2 construct: expressed in transfected cells; host or cells: RH7777 cells (membranes)
Description: S1P1 GTPγS assay. As to conditions: tested in one of the above S1P1 assays (two GTPγS formats). Format: biochemical. The gist of the method:
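Membranes from RH7777 cells expressing human S1P1 (1.5 μg/well) precoupled 30 min on ice to WGA SPA beads in 20 mM HEPES pH 7.4, 10 mM MgCl2, 100 mM NaCl, with 10 μM GDP and 90 μg/ml saponin. [35S]-GTPγS 0.5 nM final added with compound; SPA signal read immediately.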
The compound `CNC(=O)CCCN1CCc2ccc(-c3noc(-c4ccc(OC(C)C)c(C#N)c4)n3)cc2CC1` [Example 24, 4-[7-(5-{3-Cyano-4-[(1-methylethyl)oxy]phenyl}-1,2,4-oxadiazol-3-yl)-1,2,4,5-tetrahydro-3H-3-benzazepin-3-yl]-N-methylbutanamide] gave an EC50 of no more than 100 nM.
